Our source for the IC50 values is patent US20090239841A1, “Diaryl Ureas as CB1 Antagonists” (priority 2004, published 2009).

For the assay, the target named is T1, hCB1 (Homo sapiens, UniProt P21554).
T1 construct: made in house; host or cells: Sf9 insect cells (baculovirus), P2 membranes
The experiment in a line: Agonist-induced GTP binding (GTPγ35S) assay at CB1, Example 8. Format: biochemical. Conditions: read-out: IC50. The gist of the method: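 Membranes from Sf9 cells co-expressing hCB1 and heterotrimeric G-protein (10 μg protein) in Tris pH 7.4 buffer with 5 μM GDP. Test compounds (10^−10–10^−5 M) competed against 1 nM CP55,940 with […] GTPγ35S, 60 min at room temperature. Filter-bound radioactivity by scintillation, expressed as percent above basal.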

Setting [1] is: IC50 at CB1, determined as described in Example 8.
Where [2] appears, read: Table II, IC50 at CB1, GTP binding with 1 nM CP55,940.

Read-outs that look alike come from different tables or passages of the source. Some results are limits rather than exact numbers.

T1 sequence (P21554 whole entry): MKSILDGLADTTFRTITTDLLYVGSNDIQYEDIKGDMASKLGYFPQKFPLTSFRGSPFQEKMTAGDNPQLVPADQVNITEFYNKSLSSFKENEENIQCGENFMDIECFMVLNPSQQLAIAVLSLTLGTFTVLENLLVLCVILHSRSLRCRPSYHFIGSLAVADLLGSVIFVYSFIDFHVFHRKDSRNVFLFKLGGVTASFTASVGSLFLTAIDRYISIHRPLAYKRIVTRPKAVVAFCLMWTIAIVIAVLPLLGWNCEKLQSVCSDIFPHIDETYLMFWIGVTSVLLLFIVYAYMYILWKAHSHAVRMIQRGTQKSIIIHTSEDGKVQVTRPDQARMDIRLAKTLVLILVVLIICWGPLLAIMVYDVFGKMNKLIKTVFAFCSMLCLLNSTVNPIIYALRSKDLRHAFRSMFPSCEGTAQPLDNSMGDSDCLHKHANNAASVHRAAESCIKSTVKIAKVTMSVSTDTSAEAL

As for `Cc1ccc(NC(=O)Nc2ccc(C)c(F)c2)cc1F` [Compound 772, 1,3-bis(3-fluoro-4-methylphenyl)urea], the IC50 under setting [1] was below 2 µM. Consider `COc1ccc(-c2cccc(NC(=O)Nc3ccc(OC(F)F)cc3)c2)nc1Cl` [Compound 123, N-[3-(6-chloro-5-methoxypyridin-2-yl)phenyl]-N′-[4-(difluoromethoxy)phenyl]urea], for which the IC50 under setting [2] is below 2 µM.

Take `O=C(Nc1ccc(OC(F)F)cc1)Nc1cccc2cccc(Cl)c12` [Compound 141, N-(8-chloro-1-naphthyl)-N′-[4-(difluoromethoxy)phenyl]urea]: the IC50 under setting [2] is below 2 µM.

For `CCOC(=O)c1cccc(NC(=O)Nc2ccc(OCC)cc2)c1` [Compound 664, ethyl 3-({[(4-ethoxyphenyl)amino]carbonyl}amino)benzoate], under setting [1], the half-inhibitory concentration (IC50) was below 2 µM.

As for `CCCc1ccc(NC(=O)Nc2cccc(CC)c2)cc1` [Compound 334, 1-(3-ethylphenyl)-3-(4-propylphenyl)urea], the IC50 under setting [1] was below 2 µM.

For the compound `COCc1ccc(NC(=O)Nc2cccc(C#N)c2)cc1` [Compound 269, N-(3-cyanophenyl)-N′-[4-(methoxymethyl)phenyl]urea], the half-inhibitory concentration (IC50) under setting [2] is below 2 µM. In the case of `CCCc1ccc(NC(=O)Nc2cccc(C#N)c2)cc1` [Compound 198, N-(3-cyanophenyl)-N′-(4-propylphenyl)urea], under setting [2], the IC50 is below 2 µM. Consider `CC(C)Oc1ccc(NC(=O)Nc2ccc(C#N)cc2)cc1` [Compound 279, N-(4-cyanophenyl)-N′-(4-isopropoxyphenyl)urea], for which the IC50 under setting [2] was below 2 µM. For the compound `CCOc1ccc(NC(=O)Nc2ccc(Cl)nc2)cc1` [Compound 629, 1-(6-chloropyridin-3-yl)-3-(4-ethoxyphenyl)urea], the IC50 under setting [1] was below 2 µM.

For the compound `Cc1ccc(NC(=O)Nc2ccc(Cl)nc2)cc1C` [Compound 780, 1-(6-chloropyridin-3-yl)-3-(3,4-dimethylphenyl)urea], the IC50 under setting [1] is below 2 µM. For `O=C(Nc1ccc(OC(F)F)cc1)Nc1ccc(C(=O)c2ccccc2)cc1` [Compound 140, N-(4-benzoylphenyl)-N′-[4-(difluoromethoxy)phenyl]urea], the IC50 under setting [2] was below 2 µM. On the same count and under the same terms, under `Cc1nc2ccc(NC(=O)Nc3ccc(OC(F)F)cc3)cc2o1` [Compound 130, N-[4-(difluoromethoxy)phenyl]-N′-(2-methyl-1,3-benzoxazol-6-yl)urea] stands below 2 µM. In the case of `COC(=O)c1ccc(NC(=O)Nc2cccc(F)c2)cc1` [Compound 471, methyl 4-({[(3-fluorophenyl)amino]carbonyl}amino)benzoate], under setting [1], the IC50 was below 2 µM. Turning to `COc1cccc(NC(=O)Nc2cccc(OC(C)C)c2)c1` [Compound 548, 1-(3-isopropoxyphenyl)-3-(3-methoxyphenyl)urea], the IC50 under setting [1] was below 2 µM. The same measure, in the same setting: under `COCc1ccc(NC(=O)Nc2ccc(C(C)C)cc2)cc1` [Compound 572, 1-(4-isopropylphenyl)-3-[4-(methoxymethyl)phenyl]urea] stands below 2 µM. With `COc1cc(NC(=O)Nc2ccc(OC(F)(F)F)cc2)ccc1OC(F)F` [Compound 100, N-[4-(difluoromethoxy)-3-methoxyphenyl]-N′-[4-(trifluoromethoxy)phenyl]urea], under setting [2], the half-inhibitory concentration (IC50) was below 2 µM. The same measure, in the same setting: to `Cc1ccc(NC(=O)Nc2ccc(OC(F)F)cc2)cc1C` [Compound 90, N-[4-(difluoromethoxy)phenyl]-N′-(3,4-dimethylphenyl)urea] belongs below 2 µM; to `O=C(Nc1ccc(Oc2ccccc2)cc1)Nc1ccc(OC(F)F)cc1` [Compound 86, N-[4-(difluoromethoxy)phenyl]-N′-(4-phenoxyphenyl)urea], below 2 µM.

In the case of `COc1ccc(C(F)(F)F)c(-c2cccc(NC(=O)Nc3ccc(OC(F)F)cc3)c2)n1` [Compound 121, N-[4-(difluoromethoxy)phenyl]-N′-{3-[6-methoxy-3-(trifluoromethyl)pyridin-2-yl]phenyl}urea], the IC50 under setting [2] is below 2 µM.

For the compound `CCC(=O)c1ccc(NC(=O)Nc2ccc(C)c(C)c2)cc1` [Compound 733, 1-(3,4-dimethylphenyl)-3-(4-propionylphenyl)urea], under setting [1], the IC50 is below 2 µM. Still for that read-out and setting: to `CCOc1ccc(NC(=O)Nc2cccc(C(=O)OC)c2)cc1` [Compound 663, methyl 3-({[(4-ethoxyphenyl)amino]carbonyl}amino)benzoate] belongs below 2 µM; to `CC(=O)c1ccc(NC(=O)Nc2ccc(CC#N)cc2)cc1` [Compound 505, 1-(4-acetylphenyl)-3-[4-(cyanomethyl)phenyl]urea], below 2 µM. On the same count and under the same terms, to `CCCc1ccc(NC(=O)Nc2cccc(C(=O)OC)c2)cc1` [Compound 650, methyl 3-({[(4-propylphenyl)amino]carbonyl}amino)benzoate] belongs below 2 µM. The same measure, in the same setting: to `COC(=O)c1cccc(NC(=O)Nc2ccc(CC#N)cc2)c1` [Compound 712, methyl 3-[({[4-(cyanomethyl)phenyl]amino}carbonyl)amino]benzoate] belongs below 2 µM; to `COc1ccc(NC(=O)Nc2cc(F)cc(F)c2)cc1` [Compound 701, 1-(3,5-difluorophenyl)-3-(4-methoxyphenyl)urea], below 2 µM; to `CCOC(=O)c1ccc(NC(=O)Nc2cccc(OCCO)c2)cc1` [Compound 757, ethyl 4-[({[3-(2-hydroxyethoxy)phenyl]amino}carbonyl)amino] benzoate], below 2 µM. `COc1cccc(NC(=O)Nc2ccc(C(C)=O)cc2)c1` [Compound 258, N-(4-acetylphenyl)-N′-(3-methoxyphenyl)urea]: the IC50 under setting [2] is below 2 µM. Consider `CCCc1ccccc1NC(=O)Nc1cccc(OC(F)F)c1` [Compound 578, 1-[3-(difluoromethoxy)phenyl]-3-(2-propylphenyl)urea], for which the IC50 under setting [1] is below 2 µM. Consider `CCOc1ccc(NC(=O)Nc2cccc(C)c2)cc1` [Compound 158, N-(4-ethoxyphenyl)-N′-(3-methylphenyl)urea], for which the IC50 under setting [2] is below 2 µM. As to `CCOc1ccc(NC(=O)Nc2cccc([N+](=O)[O-])c2)cc1` [Compound 559, 1-(4-ethoxyphenyl)-3-(3-nitrophenyl)urea], the IC50 under setting [1] is below 2 µM. Consider `CC(C)c1ccc(NC(=O)Nc2ccc(F)cc2)cc1` [Compound 176, N-(4-fluorophenyl)-N′-(4-isopropylphenyl)urea], for which, under setting [2], the IC50 was below 2 µM.

On to `COC(=O)c1ccc(NC(=O)Nc2ccc(CCO)cc2)cc1` [Compound 752, methyl 4-[({[4-(2-hydroxyethyl)phenyl]amino}carbonyl)amino] benzoate], for which, under setting [1], the half-inhibitory concentration (IC50) is below 2 µM. Regarding `CC(C)Oc1ccc(NC(=O)Nc2cccc(F)c2)cc1` [Compound 215, N-(3-fluorophenyl)-N′-(4-isopropoxyphenyl)urea], the IC50 under setting [2] was below 2 µM. Take `CC(C)OC(=O)c1ccc(NC(=O)Nc2ccc(F)cc2)cc1` [Compound 480, isopropyl 4-({[(4-fluorophenyl)amino]carbonyl}amino)benzoate]: under setting [1], the IC50 was below 2 µM. `COCc1ccc(NC(=O)Nc2cccc(F)c2)cc1` [Compound 208, N-(3-fluorophenyl)-N′-[4-(methoxymethyl)phenyl]urea]: the IC50 under setting [2] is below 2 µM.

As to `CCCOc1ccc(NC(=O)Nc2cccc(C(C)=O)c2)cc1` [Compound 416, 1-(3-acetylphenyl)-3-(4-propoxyphenyl)urea], under setting [1], the half-inhibitory concentration (IC50) was below 2 µM. Still for that read-out and setting: under `CCCOc1ccc(NC(=O)Nc2cccc(C)c2)cc1` [Compound 304, 1-(3-methylphenyl)-3-(4-propoxyphenyl)urea] stands below 2 µM; under `COCc1ccc(NC(=O)Nc2ccc(OC(F)F)cc2)cc1` [Compound 533, 1-[4-(difluoromethoxy)phenyl]-3-[4-(methoxymethyl)phenyl]urea], below 2 µM; under `CCOc1ccc(NC(=O)Nc2cccc(C)c2)cc1` [Compound 302, 1-(4-ethoxyphenyl)-3-(3-methylphenyl)urea], below 2 µM. On the same count and under the same terms, under `CC(C)Oc1cccc(NC(=O)Nc2cccc(Cl)c2)c1` [Compound 400, 1-(3-chlorophenyl)-3-(3-isopropoxyphenyl)urea] stands below 2 µM; under `CCc1ccc(NC(=O)Nc2cccc(OC(F)F)c2)cc1` [Compound 407, 1-[3-(difluoromethoxy)phenyl]-3-(4-ethylphenyl)urea], below 2 µM. Regarding `Cc1cccc(NC(=O)Nc2cccc(-c3ccnc(C)n3)c2)c1` [Compound 163, N-(3-methylphenyl)-N′-[3-(2-methylpyrimidin-4-yl)phenyl]urea], the half-inhibitory concentration (IC50) under setting [2] is below 2 µM. The same measure, in the same setting: to `Cc1ccc(NC(=O)Nc2ccc(C)c(F)c2)cc1` [Compound 160, N-(3-fluoro-4-methylphenyl)-N′-(4-methylphenyl)urea] belongs below 2 µM. Take `O=C(Nc1ccc(Cn2cncn2)cc1)Nc1ccc(OC(F)F)cc1` [Compound 787, N-[4-(difluoromethoxy)phenyl]-N′-[4-(1H-1,2,4-triazol-1-ylmethyl)phenyl]urea]: the 50% inhibitory concentration (IC50) under setting [1] was below 2 µM. In the case of `COc1ncc(C(F)(F)F)c(-c2cccc(NC(=O)Nc3ccc(OC(F)F)cc3)c2)n1` [Compound 119, N-[4-(difluoromethoxy)phenyl]-N′-{3-[2-methoxy-5-(trifluoromethyl)pyrimidin-4-yl]phenyl}urea], the IC50 under setting [2] is below 2 µM. As to `CCOC(=O)c1ccc(NC(=O)Nc2ccc(C)cc2)cc1` [Compound 474, ethyl 4-({[(4-methylphenyl)amino]carbonyl}amino)benzoate], the IC50 under setting [1] is below 2 µM. Turning to `CC(=O)c1ccc(NC(=O)Nc2ccc(OC(C)C)cc2)cc1` [Compound 424, 1-(4-acetylphenyl)-3-(4-isopropoxyphenyl)urea], under setting [1], the IC50 is below 2 µM. With `CC(=O)c1cccc(NC(=O)Nc2ccc(C(C)C)cc2)c1` [Compound 195, N-(3-acetylphenyl)-N′-(4-isopropylphenyl)urea], the IC50 under setting [2] was below 2 µM.

On to `CC(C)Oc1ccc(NC(=O)Nc2ccc(C#N)cc2)cc1` [Compound 421, 1-(4-cyanophenyl)-3-(4-isopropoxyphenyl)urea], for which, under setting [1], the IC50 was below 2 µM.
